Measured values published in patent publication US10918610B2, “Compounds and methods of promoting myelination” (Case Western Reserve University, priority 2017, dated 2021).

Test system: EpiSC-derived OPCs
Assay: Formation of differentiated MBP+ oligodendrocytes from OPCs in vitro (high-content imaging)
Format: cell-based, mouse
From the text: EpiSC-derived OPCs were obtained using in vitro differentiation protocols and culture conditions described previously. To ensure uniformity throughout all in vitro screening experiments, EpiSC-derived OPCs were sorted to purity by fluorescence activated cell sorting at passage five with conjugated CD 140a-APC (eBioscience, 17-1401; 1:80) and NG2-AF488 (Millipore, AB5320A4; 1:100) antibodies. Sorted batches of OPCs were expanded and frozen down in aliquots. OPCs were thawed into growth conditions for one passage before use in further assays. Cultures were regularly tested and shown to be mycoplasma free.
EpiSC-derived OPCs were grown and expanded in poly-ornithine (PO) and laminin-coated flasks with growth medium (DMEM/F12 supplemented with N2-MAX (R&D Systems), B-27 (ThermoFisher), GlutaMax (Gibco), FGF2 ([…], R&D systems, 233-FB-025) and PDGF-AA ([…], R&D systems, 233-AA-050) before harvesting for plating. The cells were seeded onto poly-D-lysine 96-well CellCarrier plates (PerkinElmer) coated with laminin (Sigma, L2020; 15 μg/ml) using multi-channel pipet. For the experiment, 800,000 cells/mL stock in differentiation medium (DMEM/F12 supplemented with N2-MAX and B-27) was prepared and stored on ice for 2 h. […]
Plates were imaged on the Operetta High Content Imaging and Analysis system (PerkinElmer) and a set of 6 fields captured from each well resulting in an average of 1200 cells being scored per well. […] Each traced nucleus region was then expanded by 50% and cross-referenced with the […] (MBP) stain to identify oligodendrocyte nuclei, and from this the percentage of oligodendrocytes was calculated. In some experiments, the total process length of MBP+ oligodendrocytes was calculated as previously described.
OPCs were generated from the EpiSC5 cell line. […] To ensure uniformity throughout all in vitro screening experiments, EpiSC-derived OPCs were sorted to purity by fluorescence activated cell sorting at passage five with conjugated CD 140a-APC (eBioscience, 17-1401; 1:80) and NG2-AF488 (Millipore, AB5320A4; 1:100) antibodies. […]

## CCN(C/C=C\c1ccc(C2CCCCC2)c(Cl)c1)C1CCCCC1 [Cis-N-cyclohexyl-N-ethyl-3-(3-chloro-4-cyclohexylphenyl)prop-2-enylamine]
63 nM, 125 nM, 250 nM and 500 nM versus ketoconazole 2.5 μM
  number of differentiated MBP+ oligodendrocytes from OPCs compared with ketoconazole: at higher rates than ketoconazole
0.03, 0.1, 0.3 and 1 um, 40,000 cells per well, 3 days
  formation of MBP+ oligodendrocytes in culture (FIG. 1A): enhances formation of MBP+ oligodendrocytes
Wider range of concentrations (2 nM to 500 nM), 50,000 cells per well, N2B27 media, no growth factors
  formation of MBP+ oligodendrocytes in in vitro cultures of OPCs (FIG. 4): enhances formation of MBP+ oligodendrocytes
